Source: US20110105509A1 (Wyeth, LLC, priority 2009, published 2011)

target: T1, CRTH2 (Homo sapiens, UniProt Q9Y5Y4); test: FRET based competitive immunoassay (cAMP) in CRTH2 expressing CHO cells; assay type: cell-based; details: CRTH2 expressing CHO cells incubated with forskolin and PGD2; Eu3+ cryptate-labeled anti-cAMP and d2-labeled cAMP
T1 construct: expressed in transfected cells; host or cells: CHO cells
T1 sequence (Q9Y5Y4 1-395): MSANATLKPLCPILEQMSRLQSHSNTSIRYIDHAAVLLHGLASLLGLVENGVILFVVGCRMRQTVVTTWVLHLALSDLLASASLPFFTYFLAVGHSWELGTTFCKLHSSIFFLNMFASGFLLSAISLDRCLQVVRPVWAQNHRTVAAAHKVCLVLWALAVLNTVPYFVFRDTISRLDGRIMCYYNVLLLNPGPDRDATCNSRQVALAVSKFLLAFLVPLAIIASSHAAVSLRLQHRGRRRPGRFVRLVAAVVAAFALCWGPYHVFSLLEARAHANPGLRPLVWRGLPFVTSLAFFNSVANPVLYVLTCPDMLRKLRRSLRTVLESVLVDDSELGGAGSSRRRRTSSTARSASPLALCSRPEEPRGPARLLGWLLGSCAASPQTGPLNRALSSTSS
Experimental: FRET Assay: To evaluate potency compounds were tested in a FRET based competitive immunoassay in which CRTH2 expressing CHO cells were incubated in the presence of forskolin and PGD2 along with Eu3+ cryptate-labeled anti-cAMP and d2-labeled cAMP.

Going from Cc1c(Cc2ccc(=O)n(CC(O)(C(F)(F)F)C(F)(F)F)n2)c2cc(F)ccc2n1CC(=O)O [Example 201, [5-fluoro-2-methyl-3-({6-oxo-1-[3,3,3-trifluoro-2-hydroxy-2-(trifluoromethyl)-propyl]-1,6-dihydro-pyridazin-3-yl}methyl)-1H-indol-1-yl]acetic acid] to Cc1c(-c2ccc(=O)n(Cc3ccccc3C(F)(F)F)n2)c2cc(F)ccc2n1CC(=O)O [Example 216, 2-(5-fluoro-2-methyl-3-(6-oxo-1-(2-(trifluoromethyl)benzyl)-1,6-dihydropyridazin-3-yl)-1H-indol-1-yl)acetic acid], the IC50 falls from 22 nM to 14 nM (1.6-fold).

Cc1c(-c2nn(Cc3ccccc3C(F)(F)F)c(=O)c3ccccc23)c2cc(F)ccc2n1CC(=O)O [Example 202, 2-(5-fluoro-2-methyl-3-(4-oxo-3-(2-(trifluoromethyl)benzyl)-3,4-dihydrophthalazin-1-yl)-1H-indol-1-yl)acetic acid] and Cc1c(-c2nn(Cc3cccc(C(F)(F)F)c3)c(=O)c3ccccc23)c2cc(F)ccc2n1CC(=O)O [Example 203, 2-(5-fluoro-2-methyl-3-(4-oxo-3-(3-(trifluoromethyl)benzyl)-3,4-dihydro-phthalazin-1-yl)-1H-indol-1-yl)acetic acid] are within 1.5-fold of each other in IC50: 9 nM for the first, 10 nM for the second.

First: Cc1c(-c2nn(Cc3ccc(C(F)(F)F)cc3)c(=O)c3ccccc23)c2cc(F)ccc2n1CC(=O)O [Example 204, 2-(5-fluoro-2-methyl-3-(4-oxo-3-(4-(trifluoromethyl)benzyl)-3,4-dihydrophthalazin-1-yl)-1H-indol-1-yl)acetic acid]
Second: Cc1c(-c2nn(-c3ccc(C(F)(F)F)cc3)c(=O)c3ccccc23)c2cc(F)ccc2n1CC(=O)O [Example 206, 2-(5-fluoro-2-methyl-3-(4-oxo-3-(4-(trifluoromethyl)phenyl)-3,4-dihydrophthalazin-1-yl)-1H-indol-1-yl)acetic acid]
The IC50 of the first is 32-fold lower: 10 nM for the first, 320 nM for the second. The first is the more potent here.

Going from Cc1c(-c2nn(-c3ccccc3)c(=O)c3ccccc23)c2cc(F)ccc2n1CC(=O)O [Example 205, 2-(5-fluoro-2-methyl-3-(4-oxo-3-phenyl-3,4-dihydrophthalazin-1-yl)-1H-indol-1-yl)-acetic acid] to Cc1c(-c2nn(CCc3ccccc3)c(=O)c3ccccc23)c2cc(F)ccc2n1CC(=O)O [Example 226, 2-(5-fluoro-2-methyl-3-(4-oxo-3-phenethyl-3,4-dihydrophthalazin-1-yl)-1H-indol-1-yl)acetic acid], the IC50 falls from 60 nM to 2 nM (30-fold).

Going from Cc1c(-c2nn(-c3cccc(C(F)(F)F)c3)c(=O)c3ccccc23)c2cc(F)ccc2n1CC(=O)O [Example 207, 2-(5-fluoro-2-methyl-3-(4-oxo-3-(3-(trifluoromethyl)phenyl)-3,4-dihydrophthalazin-1-yl)-1H-indol-1-yl)acetic acid] to Cc1c(-c2nn(CCc3ccc(F)cc3)c(=O)c3ccccc23)c2cc(F)ccc2n1CC(=O)O [Example 227, 2-(5-fluoro-3-(3-(4-fluorophenethyl)-4-oxo-3,4-dihydrophthalazin-1-yl)-2-methyl-1H-indol-1-yl)acetic acid], the IC50 falls from 588 nM to 3 nM (200-fold).

First: Cc1c(-c2nn(Cc3nc4cc(Cl)ccc4s3)c(=O)c3ccccc23)c2cc(F)ccc2n1CC(=O)O [Example 208, 2-(3-(3-((5-chlorobenzo[d]thiazol-2-yl)methyl)-4-oxo-3,4-dihydrophthalazin-1-yl)-5-fluoro-2-methyl-1H-indol-1-yl)acetic acid]
Second: Cc1c(-c2nn(Cc3nc4cc(Cl)ccc4s3)c(=O)c3ccccc23)c2cc(Cl)ccc2n1CC(=O)O [Example 209, 2-(5-chloro-3-(3-((5-chlorobenzo[d]thiazol-2-yl)methyl)-4-oxo-3,4-dihydro-phthalazin-1-yl)-2-methyl-1H-indol-1-yl)acetic acid]
The IC50 of the first is 4.7-fold lower: 3 nM for the first, 14 nM for the second. The first is the more potent here.

Going from Cc1c(-c2nn(CCOc3ccc(Cl)cc3)c(=O)c3ccccc23)c2cc(F)ccc2n1CC(=O)O [Example 210, 2-(3-(3-(2-(4-chlorophenoxy)ethyl)-4-oxo-3,4-dihydrophthalazin-1-yl)-5-fluoro-2-methyl-1H-indol-1-yl)acetic acid] to Cc1c(-c2nn(CCOc3ccccc3)c(=O)c3ccccc23)c2cc(F)ccc2n1CC(=O)O [Example 222, 2-(5-fluoro-2-methyl-3-(4-oxo-3-(2-phenoxyethyl)-3,4-dihydrophthalazin-1-yl)-1H-indol-1-yl)acetic acid], the IC50 falls from 2 nM to 1 nM (2-fold).

Going from Cc1c(-c2ccc(=O)n(Cc3ccccc3C(F)(F)F)n2)c2cc(Cl)ccc2n1CC(=O)O [Example 211, 2-(5-chloro-2-methyl-3-(6-oxo-1-(2-(trifluoromethyl)benzyl)-1,6-dihydro-pyridazin-3-yl)-1H-indol-1-yl)acetic acid] to Cc1c(-c2ccc(=O)n(Cc3cccc(C(F)(F)F)c3)n2)c2cc(Cl)ccc2n1CC(=O)O [Example 212, 2-(5-chloro-2-methyl-3-(6-oxo-1-(3-(trifluoromethyl)benzyl)-1,6-dihydropyridazin-3-yl)-1H-indol-1-yl)acetic acid], the IC50 rises from 22 nM to 33 nM (1.5-fold).

Cc1c(-c2ccc(=O)n(Cc3ccc(C(F)(F)F)cc3)n2)c2cc(Cl)ccc2n1CC(=O)O [Example 213, 2-(5-chloro-2-methyl-3-(6-oxo-1-(4-(trifluoromethyl)benzyl)-1,6-dihydropyridazin-3-yl)-1H-indol-1-yl)acetic acid] and Cc1c(-c2ccc(=O)n(Cc3cccc(C(F)(F)F)c3)n2)c2cc(F)ccc2n1CC(=O)O [Example 218, 2-(5-fluoro-2-methyl-3-(6-oxo-1-(3-(trifluoromethyl)benzyl)-1,6-dihydropyridazin-3-yl)-1H-indol-1-yl)acetic acid] are within 1.5-fold of each other in IC50: 19 nM for the first, 24 nM for the second.

Compared with Cc1c(-c2ccc(=O)n(Cc3ccccc3)n2)c2cc(S(C)(=O)=O)ccc2n1CC(=O)O [Example 214, 2-(3-(1-benzyl-6-oxo-1,6-dihydropyridazin-3-yl)-2-methyl-5-(methylsulfonyl)-1H-indol-1-yl)acetic acid], Cc1c(-c2ccc(=O)n(Cc3ccccc3)n2)c2cc(Br)ccc2n1CC(=O)O [Example 219, 2-(3-(1-benzyl-6-oxo-1,6-dihydropyridazin-3-yl)-5-bromo-2-methyl-1H-indol-1-yl)-acetic acid] is 12-fold lower in IC50: 351 nM for the first, 30 nM for the second.

Cc1c(-c2nn(Cc3ccccc3)c(=O)c3ccccc23)c2cc(S(C)(=O)=O)ccc2n1CC(=O)O [Example 215, 2-(3-(3-benzyl-4-oxo-3,4-dihydrophthalazin-1-yl)-2-methyl-5-(methylsulfonyl)-1H-indol-1-yl)acetic acid] and Cc1c(-c2nn(CCc3ccccc3)c(=O)c3ccccc23)c2ccccc2n1CC(=O)O [Example 225, 2-(2-methyl-3-(4-oxo-3-phenethyl-3,4-dihydrophthalazin-1-yl)-1H-indol-1-yl)acetic acid] are the same in IC50: 27 nM for the first, 27 nM for the second.

First: Cc1c(-c2nn(CC(C)(C)Oc3ccccc3)c(=O)c3ccccc23)c2cc(F)ccc2n1CC(=O)O [Example 220, 2-(5-fluoro-2-methyl-3-(3-(2-methyl-2-phenoxypropyl)-4-oxo-3,4-dihydrophthalazin-1-yl)-1H-indol-1-yl)acetic acid]
Second: Cc1c(-c2ccc(=O)n(CC(C)(C)Oc3ccccc3)n2)c2cc(F)ccc2n1CC(=O)O [Example 230, 2-(5-fluoro-2-methyl-3-(1-(2-methyl-2-phenoxypropyl)-6-oxo-1,6-dihydropyridazin-3-yl)-1H-indol-1-yl)acetic acid]
The IC50 of the first is 13-fold lower: 18 nM for the first, 232 nM for the second.

Cc1c(-c2nn(CCOc3ccccc3)c(=O)c3ccccc23)c2cc(Cl)ccc2n1CC(=O)O [Example 221, 2-(5-chloro-2-methyl-3-(4-oxo-3-(2-phenoxyethyl)-3,4-dihydrophthalazin-1-yl)-1H-indol-1-yl)acetic acid] and Cc1c(-c2nn(CCOc3ccccc3)c(=O)c3ccccc23)c2ccccc2n1CC(=O)O [Example 223, 2-(2-methyl-3-(4-oxo-3-(2-phenoxyethyl)-3,4-dihydrophthalazin-1-yl)-1H-indol-1-yl)acetic acid] are the same in IC50: 6 nM for the first, 6 nM for the second.

Cc1c(-c2nn(CCc3ccc(F)cc3)c(=O)c3ccccc23)c2ccccc2n1CC(=O)O [Example 224, 2-(3-(3-(4-fluorophenethyl)-4-oxo-3,4-dihydrophthalazin-1-yl)-2-methyl-1H-indol-1-yl)acetic acid] and Cc1c(-c2ccc(=O)n(CCc3ccc(F)cc3)n2)c2ccccc2n1CC(=O)O [Example 229, 2-(3-(1-(4-fluorophenethyl)-6-oxo-1,6-dihydropyridazin-3-yl)-2-methyl-1H-indol-1-yl)acetic acid] are within 1.5-fold of each other in IC50: 93 nM for the first, 136 nM for the second.

Going from Cc1c(-c2ccc(=O)n(CCc3ccccc3)n2)c2ccccc2n1CC(=O)O [Example 228, 2-(2-methyl-3-(6-oxo-1-phenethyl-1,6-dihydropyridazin-3-yl)-1H-indol-1-yl)acetic acid] to Cc1c(-c2ccc(=O)n(Cc3ccccc3)n2)c2cc(F)cc(Cl)c2n1CC(=O)O [Example 231, 2-(3-(1-benzyl-6-oxo-1,6-dihydropyridazin-3-yl)-7-chloro-5-fluoro-2-methyl-1H-indol-1-yl)acetic acid], the IC50 rises from 147 nM to 401 nM (2.7-fold). The first is the more potent here.

With Cc1c(-c2ccc(=O)n(C(C)C)n2)c2cc(F)cc(Cl)c2n1CC(=O)O [Example 232, 2-(7-chloro-5-fluoro-3-(1-isopropyl-6-oxo-1,6-dihydropyridazin-3-yl)-2-methyl-1H-indol-1-yl)acetic acid] the IC50 was 1080 nM.
